Measurements from ChEMBL document CHEMBL1201862, “PubChem BioAssay data set” (2004).
The source made the active and inactive calls.

Columns and labels:
Troponin, cardiac muscle = Troponin, cardiac muscle (Homo sapiens, UniProt P19429+P45379+P63316); assay: Fluorescence-based biochemical high throughput dose response assay for activators of the calcium sensitivity of cardiac Regulated Thin Filaments (RTF). [Related pubchem assays (depositor defined):AID493008, AID493018, AID504382, AID504383]; format: protein-complex assay
[1] = target: Glyceraldehyde-3-phosphate dehydrogenase (Homo sapiens, UniProt P04406)
Sequence of Glyceraldehyde-3-phosphate dehydrogenase (P04406 whole entry): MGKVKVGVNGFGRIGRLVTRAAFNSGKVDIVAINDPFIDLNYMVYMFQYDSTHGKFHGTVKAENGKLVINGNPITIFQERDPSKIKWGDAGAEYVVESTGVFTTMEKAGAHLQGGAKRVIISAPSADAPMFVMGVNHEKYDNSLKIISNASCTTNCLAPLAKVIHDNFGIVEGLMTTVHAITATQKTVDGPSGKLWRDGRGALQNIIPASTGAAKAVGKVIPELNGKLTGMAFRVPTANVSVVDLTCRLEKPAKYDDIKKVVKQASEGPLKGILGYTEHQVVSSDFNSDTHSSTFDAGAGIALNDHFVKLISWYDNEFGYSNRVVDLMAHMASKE

[2] = target: Alkaline phosphatase, placental type (Homo sapiens, UniProt P05187); assay: PLAP enzyme inhibitors, confirmation, biochemical, luminescence (AID 1512); format: functional
Sequence of Alkaline phosphatase, placental type (P05187 whole entry): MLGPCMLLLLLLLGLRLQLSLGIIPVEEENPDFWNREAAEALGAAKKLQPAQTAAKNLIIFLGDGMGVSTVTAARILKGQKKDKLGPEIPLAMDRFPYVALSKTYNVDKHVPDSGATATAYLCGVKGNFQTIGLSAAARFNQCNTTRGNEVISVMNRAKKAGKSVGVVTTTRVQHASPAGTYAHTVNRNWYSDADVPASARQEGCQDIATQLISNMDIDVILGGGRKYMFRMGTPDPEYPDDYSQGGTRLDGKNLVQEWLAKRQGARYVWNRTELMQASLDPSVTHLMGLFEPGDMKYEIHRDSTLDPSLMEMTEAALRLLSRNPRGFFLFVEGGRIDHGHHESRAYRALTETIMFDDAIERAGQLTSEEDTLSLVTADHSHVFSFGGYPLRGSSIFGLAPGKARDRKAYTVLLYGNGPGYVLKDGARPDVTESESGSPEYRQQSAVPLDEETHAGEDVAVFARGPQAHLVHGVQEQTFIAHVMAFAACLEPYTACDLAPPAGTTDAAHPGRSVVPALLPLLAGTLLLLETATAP

[3] = target: T1, Alkaline phosphatase, tissue-nonspecific isozyme (Homo sapiens, UniProt P05186); assay: human TNAP enzyme inhibitors, SAR follow-up, biochemical, luminescent, dose response (AID 1056)
T1 sequence (P05186 whole entry): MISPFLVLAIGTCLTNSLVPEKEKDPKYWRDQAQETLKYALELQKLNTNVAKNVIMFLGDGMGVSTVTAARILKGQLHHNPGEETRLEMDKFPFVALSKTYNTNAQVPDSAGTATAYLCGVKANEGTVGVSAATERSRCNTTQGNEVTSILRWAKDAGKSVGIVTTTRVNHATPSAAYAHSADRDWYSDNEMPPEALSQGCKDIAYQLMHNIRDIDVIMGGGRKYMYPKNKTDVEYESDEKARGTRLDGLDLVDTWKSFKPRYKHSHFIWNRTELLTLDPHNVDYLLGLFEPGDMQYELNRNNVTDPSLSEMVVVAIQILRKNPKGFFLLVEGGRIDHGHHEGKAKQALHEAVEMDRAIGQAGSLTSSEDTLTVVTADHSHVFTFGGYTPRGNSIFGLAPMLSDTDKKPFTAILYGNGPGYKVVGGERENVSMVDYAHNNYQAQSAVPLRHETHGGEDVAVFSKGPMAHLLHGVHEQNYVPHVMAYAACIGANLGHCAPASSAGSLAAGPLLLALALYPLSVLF

Integrin alpha-4 = Integrin alpha-4 (Homo sapiens, UniProt P13612); assay: VLA-4 integrin allosteric ligands, SAR follow-up, cell-based, LIBS antibody binding, flow cytometry (AID 488791); format: functional
Sequence of Integrin alpha-4 (P13612 whole entry): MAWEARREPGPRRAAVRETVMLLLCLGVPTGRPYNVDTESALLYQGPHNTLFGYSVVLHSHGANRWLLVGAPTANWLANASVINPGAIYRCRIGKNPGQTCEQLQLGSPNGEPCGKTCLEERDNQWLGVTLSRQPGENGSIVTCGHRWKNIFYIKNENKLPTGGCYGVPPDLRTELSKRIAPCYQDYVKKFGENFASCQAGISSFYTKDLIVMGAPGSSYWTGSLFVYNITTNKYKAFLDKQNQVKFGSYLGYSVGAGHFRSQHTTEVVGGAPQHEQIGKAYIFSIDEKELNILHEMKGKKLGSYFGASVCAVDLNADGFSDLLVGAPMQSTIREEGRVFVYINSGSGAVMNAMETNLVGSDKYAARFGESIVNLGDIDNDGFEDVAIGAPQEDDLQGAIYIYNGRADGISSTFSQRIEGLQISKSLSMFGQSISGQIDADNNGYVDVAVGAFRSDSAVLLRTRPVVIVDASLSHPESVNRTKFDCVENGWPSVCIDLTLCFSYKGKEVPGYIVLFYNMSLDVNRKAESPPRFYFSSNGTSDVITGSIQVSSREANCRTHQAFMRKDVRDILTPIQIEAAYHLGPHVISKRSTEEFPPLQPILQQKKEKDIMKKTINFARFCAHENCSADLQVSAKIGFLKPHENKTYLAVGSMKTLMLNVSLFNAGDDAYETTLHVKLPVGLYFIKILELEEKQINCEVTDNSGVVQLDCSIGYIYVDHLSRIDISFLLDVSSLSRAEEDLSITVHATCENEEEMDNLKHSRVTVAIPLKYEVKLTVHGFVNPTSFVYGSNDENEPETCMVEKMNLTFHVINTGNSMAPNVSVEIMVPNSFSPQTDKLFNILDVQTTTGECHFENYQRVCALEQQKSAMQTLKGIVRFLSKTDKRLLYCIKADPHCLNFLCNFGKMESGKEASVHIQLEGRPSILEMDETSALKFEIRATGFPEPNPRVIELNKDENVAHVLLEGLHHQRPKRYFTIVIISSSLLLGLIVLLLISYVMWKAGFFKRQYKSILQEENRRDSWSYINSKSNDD

[4] = target: E3 ubiquitin-protein ligase Mdm2/Protein Mdm4 (Homo sapiens, UniProt O15151+Q00987); assay: Mdm2-MdmX interaction inhibitors, dose response, luminescence detection (AID 504593); format: functional
Sequence of E3 ubiquitin-protein ligase Mdm2/Protein Mdm4 (Q00987 whole entry): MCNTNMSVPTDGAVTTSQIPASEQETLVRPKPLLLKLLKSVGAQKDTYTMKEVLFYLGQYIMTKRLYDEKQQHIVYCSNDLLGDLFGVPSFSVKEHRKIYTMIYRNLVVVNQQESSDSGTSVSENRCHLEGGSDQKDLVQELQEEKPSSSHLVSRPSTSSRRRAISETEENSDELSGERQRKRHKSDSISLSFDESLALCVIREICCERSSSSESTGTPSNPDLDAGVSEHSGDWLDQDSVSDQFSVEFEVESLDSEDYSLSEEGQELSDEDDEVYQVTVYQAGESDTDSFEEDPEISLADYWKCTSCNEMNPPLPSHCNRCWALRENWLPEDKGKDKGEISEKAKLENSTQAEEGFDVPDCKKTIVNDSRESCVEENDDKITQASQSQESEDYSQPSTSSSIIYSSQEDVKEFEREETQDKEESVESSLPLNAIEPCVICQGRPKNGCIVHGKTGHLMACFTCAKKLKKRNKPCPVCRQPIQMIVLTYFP
Sequence of E3 ubiquitin-protein ligase Mdm2/Protein Mdm4 (O15151 whole entry): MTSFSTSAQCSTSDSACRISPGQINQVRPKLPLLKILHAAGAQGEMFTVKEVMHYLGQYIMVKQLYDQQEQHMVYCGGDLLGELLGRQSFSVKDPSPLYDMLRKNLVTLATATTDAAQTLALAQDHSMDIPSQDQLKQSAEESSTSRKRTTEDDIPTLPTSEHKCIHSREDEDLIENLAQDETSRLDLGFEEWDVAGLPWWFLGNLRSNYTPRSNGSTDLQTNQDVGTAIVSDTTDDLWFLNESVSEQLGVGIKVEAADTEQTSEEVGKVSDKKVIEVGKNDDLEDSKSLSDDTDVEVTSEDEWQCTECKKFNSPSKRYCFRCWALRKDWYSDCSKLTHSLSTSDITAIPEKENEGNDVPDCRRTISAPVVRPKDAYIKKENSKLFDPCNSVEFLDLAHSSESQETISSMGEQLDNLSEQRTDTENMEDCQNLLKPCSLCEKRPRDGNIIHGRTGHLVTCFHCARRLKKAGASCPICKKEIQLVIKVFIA

Cytochrome P450 3A4 = Cytochrome P450 3A4 (Homo sapiens, UniProt P08684); settings: Potency;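 also: confirmatory qHTS run detecting inhibitors and substrates of CYP3A4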
Sequence of Cytochrome P450 3A4 (P08684 whole entry): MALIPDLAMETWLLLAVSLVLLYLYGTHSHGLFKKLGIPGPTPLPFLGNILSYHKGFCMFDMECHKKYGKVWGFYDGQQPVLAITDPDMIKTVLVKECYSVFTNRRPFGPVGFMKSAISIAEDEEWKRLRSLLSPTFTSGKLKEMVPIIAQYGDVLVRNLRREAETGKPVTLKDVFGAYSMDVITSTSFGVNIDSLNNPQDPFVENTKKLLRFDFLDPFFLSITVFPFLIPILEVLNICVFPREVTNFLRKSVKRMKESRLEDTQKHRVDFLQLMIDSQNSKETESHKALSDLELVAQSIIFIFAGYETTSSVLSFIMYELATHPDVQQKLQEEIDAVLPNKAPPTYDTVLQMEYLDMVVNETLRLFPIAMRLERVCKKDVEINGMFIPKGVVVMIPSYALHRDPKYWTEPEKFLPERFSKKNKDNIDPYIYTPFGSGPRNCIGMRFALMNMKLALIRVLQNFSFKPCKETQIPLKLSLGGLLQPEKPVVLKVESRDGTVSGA

[5] = THP-1 cell cytotoxicity, dose response, cytotoxicity control for non-replicating M. tuberculosis project (AID 489025); format: functional
Bcl-2-related protein A1 = Bcl-2-related protein A1 (Mus musculus, UniProt Q07440); format: functional;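 also: confirmatory dose–response counterscreen on Bfl-1, used to check hits from a UBC13 polyubiquitin inhibitor campaign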
Sequence of Bcl-2-related protein A1 (Q07440 whole entry): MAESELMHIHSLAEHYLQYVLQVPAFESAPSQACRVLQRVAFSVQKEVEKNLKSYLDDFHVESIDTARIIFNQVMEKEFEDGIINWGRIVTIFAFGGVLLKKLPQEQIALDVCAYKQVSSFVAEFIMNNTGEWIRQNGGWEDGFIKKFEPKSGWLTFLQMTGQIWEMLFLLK

[6] = target: T2, Ubiquitin-conjugating enzyme E2 N (Homo sapiens, UniProt P61088); format: functional
T2 sequence (P61088 whole entry): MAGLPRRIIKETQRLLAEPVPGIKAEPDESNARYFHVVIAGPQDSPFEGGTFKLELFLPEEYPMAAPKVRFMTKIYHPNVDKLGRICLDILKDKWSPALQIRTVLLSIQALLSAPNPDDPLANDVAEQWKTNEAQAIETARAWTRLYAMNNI

[7] = target: T2, Ubiquitin-conjugating enzyme E2 N; format: functional; remark: listed apart in the source
cells = format: functional
[8] = target: T3, High affinity choline transporter 1 (Homo sapiens, UniProt Q9GZV3); assay: CHT inhibitors, dose response, cell-based, 5-point CRC, membrane potential dye (AID 504840); format: functional
T3 sequence (Q9GZV3 whole entry): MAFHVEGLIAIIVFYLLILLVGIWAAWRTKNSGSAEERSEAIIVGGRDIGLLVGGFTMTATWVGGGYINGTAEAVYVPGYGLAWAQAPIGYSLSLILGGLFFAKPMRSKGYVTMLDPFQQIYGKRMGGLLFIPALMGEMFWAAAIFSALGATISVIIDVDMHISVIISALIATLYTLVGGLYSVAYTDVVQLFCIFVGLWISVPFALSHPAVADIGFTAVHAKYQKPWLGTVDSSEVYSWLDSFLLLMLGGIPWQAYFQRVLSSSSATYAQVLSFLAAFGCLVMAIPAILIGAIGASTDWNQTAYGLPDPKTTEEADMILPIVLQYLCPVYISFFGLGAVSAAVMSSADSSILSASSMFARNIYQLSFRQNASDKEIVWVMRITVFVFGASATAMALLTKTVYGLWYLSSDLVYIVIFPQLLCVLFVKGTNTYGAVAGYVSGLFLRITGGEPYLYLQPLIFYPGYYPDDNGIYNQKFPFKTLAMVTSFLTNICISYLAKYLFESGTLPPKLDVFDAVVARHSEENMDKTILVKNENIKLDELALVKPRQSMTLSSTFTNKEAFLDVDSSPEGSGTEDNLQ

[9] = target: Voltage-dependent T-type calcium channel subunit alpha-1H (Homo sapiens, UniProt O95180); assay: Cav3.2 T-type channel inhibitors, synthesized analogs, SAR follow-up, cell-based, synthetic library set 2, HEK293 HH8, Fluo-4 (AID 493023); format: functional

O=C(COC(=O)c1ccc(O)cc1)Nc1ccc2c(c1)OCCO2
EC50 (Troponin, cardiac muscle): > 71.5 µM (inactive)

COc1ccccc1-c1nc(SCc2ccccc2F)n[nH]1
IC50 [1]: > 100 µM (not active) | IC50 [2]: > 100 µM (inactive) | IC50 [3]: 3.41 µM (active)

Cc1ccc(NC(=O)c2cc(N3C(=O)CCC3=O)ccc2N2CCOCC2)cc1
EC50 (Integrin alpha-4): 16.4 µM (active)

CC(C)c1cccc(=O)c(O)c1 [HINOKITIOL]
IC50 [4]: 3.58 µM (active) | AC50 (Cytochrome P450 3A4): 0.631 µM (inconclusive)

COc1ccc(C(CNC(=O)c2cccc(NS(=O)(=O)c3ccc(C)c(F)c3)c2)N2CCCC2)cc1 (centres undefined)
CC50 [5]: > 40 µM (active) | IC50 (Bcl-2-related protein A1): > 20 µM (inactive) | IC50 [6]: 15.3 µM (active) | IC50 [7]: 11.7 µM (active) | IC50 (cells): 38 µM (active) | IC50 [8]: 15.8 µM (active)

CC(C)(C)CCN1CC2CCC(NC(=O)c3ccc(Cl)cc3Cl)C2C1 (centres undefined)
EC50 [9]: 0.36 µM (active)
